Results from patent US20230213527A1, “COMPOSITIONS AND METHODS FOR POLYPEPTIDE ANALYSIS” (Quantum-Si Incorporated, priority 2021, published 2023).
“And” between values parts separate entries of the source, which are not always exact repeats. Equal values may be shown once. Read-outs that look alike come from different tables or passages of the source. Square brackets hold non-standard residues; d marks the D form. Ends that are not written are not given here. Cit = NC(=O)NCCC[C@H](N)C(=O)O

Tests used:
[1] = system: PhTET2 and PhTET3; assay: Aminopeptidase cleavage of N-terminal amino acids during dynamic sequencing (RS/NRS durations); type: biochemical, P. horikoshii
Procedure: To evaluate the kinetic principles of the dynamic sequencing method when applied to diverse sequences, the synthetic peptide DQQRLIFAG (SEQ ID NO: 794), corresponding to a segment of human ubiquitin, was characterized (FIGS. 3A-3D). Sequencing reactions were performed using a combination of three differentially-labeled recognizers—PS610, PS961, and PS691—and two aminopeptidases—PhTET2 and PhTET3 (Materials and Methods). The example trace in FIG. 3A starts with an NRS that corresponds to the time interval during which residues in the initial DQQ motif are present at the N-terminus. The first RS starts at 120 min, upon exposure of N-terminal arginine to recognition by PS691. Subsequent cleavage events sequentially expose N-terminal leucine, isoleucine, and phenylalanine to their corresponding recognizers, with fast transitions (average <10 s) from one RS to the next. The transition from leucine to isoleucine recognition by PS961 is readily identified as a sharp change in average PD. This overall pattern is replicated across many instances of sequencing of the same peptide, with similar PD statistics across traces, as each peptide molecule follows the same reaction pathway over the course of the sequencing run (FIGS. 3B-3C).
The distribution of RS durations across an ensemble of replicate traces defines the rate of cleavage of each recognizable NAA. […] The distribution of NRS durations reports the cleavage rate of a run of one or more non-recognized NAAs. The average NRS duration for the initial DQQ motif was 153 min (FIG. 3D). Average cleavage rates are a key parameter and are controlled by the aminopeptidase concentration in the assay (FIGS. 8D-8E). Given the exponential behavior, average RS durations of 10 to 40 min were targeted to provide sufficient time for pulsing data collection, avoid missed RSs due to rapid cleavage, and minimize excessively long RS durations. It was found helpful to visualize the sequencing profiles of peptides as kinetic signature plots—simplified trace-like representations of the time course of complete peptide sequencing containing the median PD for each RS, and the average duration of each RS and NRS (FIG. 3E). These highly characteristic features provide a wealth of sequence-dependent information for mapping traces from peptides to their proteins of origin.
A second chip check was then performed. […] Data was recorded for 15 min.

[2] = system: amino acid recognizers; assay: Sequencing of β-amyloid wild type and variant peptides, average pulse width; type: binding; conditions: for Average Pulse Width, tripeptide LVX: when sequencing L
From the text: Aspects of the technology described herein may be used for protein preparation, peptide library preparation, peptide sequencing and peptide profiling of synthetic samples of ß-amyloid. In this example, the wild type (LVFFAE (SEQ ID NO: 827)) and variants (17LVFFAK22 (SEQ ID NO: 828), 17LVFFGK22 (SEQ ID NO: 829), 17LVFFAG22 (SEQ ID NO: 830), and 17LVPFAE22 (SEQ ID NO: 831)) of β-amyloid were digested and labeled for further analysis. Alternatively, β-amyloid may be purified from common sources, such as cerebrospinal fluid (CSF), for downstream analysis.
A chip including aspects of the technology described herein was used for the downstream sequencing of the sample material. The chip contained millions of wells, each of which acted as an independent sequencing machine. Once the sample was loaded, cloud technology was used to set up the sequencing run and collect all the data for visualization. Once collected in the cloud, a set of proprietary algorithms, which can identify amino acids based on the specialized optical pulse patterns of each binding event, determined the sequence of the peptide and mapped that sequence back to a specific protein or protein variant.
Here, the protein sequencing technology and analysis pipeline was successfully used to distinguish a variety of clinically significant ß-amyloid point mutations. The sequencing traces containing pulse patterns of the variants, 17LVFFAK22 (SEQ ID NO: 828), 17LVFFGK22 (SEQ ID NO: 829), 17LVFFAG22 (SEQ ID NO: 830), and 17LVPFAE22 (SEQ ID NO: 831), were compared to the wild type, 17LVFFAE22 (SEQ ID NO: 827). Software automatically identified pulses containing the same intensity, lifetime, and kinetics, which determined a recognition segment for a specific amino acid. Each recognition segment was color coded based on the N-terminal amino acid, and the collection of recognition segments provided a characteristic signature of the peptide.
Time domain sequencing functionality can observe sequence changes indirectly during peptide profiling. The specific PTMs and folding of each variant cause them to display distinctly different patterns, which can then be inferred via alterations in pulse width. For example, a point mutation in a sequence—at the N-terminal end, or at the penultimate and antepenultimate positions, of the peptide—can generate an altered pulse pattern, compared to another sequence.

[3] = system: PS1223; assay: Dynamic single-molecule sequencing, recognition by PS1223; type: binding; conditions: recognizer PS1223, recognition of the N-terminal amino acid
Sequence of PS1223 (as listed by the source): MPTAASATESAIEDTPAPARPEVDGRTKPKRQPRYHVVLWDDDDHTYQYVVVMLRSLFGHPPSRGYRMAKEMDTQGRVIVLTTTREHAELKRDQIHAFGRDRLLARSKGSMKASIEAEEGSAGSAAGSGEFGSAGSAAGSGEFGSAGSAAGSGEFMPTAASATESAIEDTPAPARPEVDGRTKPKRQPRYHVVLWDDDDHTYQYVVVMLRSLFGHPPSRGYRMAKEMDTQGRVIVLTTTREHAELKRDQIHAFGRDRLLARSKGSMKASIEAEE
Procedure: Sequencing reactions using the recognizers PS610 (FYW), PS1220 (R), and PS1223 (LIV) were performed separately for the QP706 and QP1073 peptide fragments. Each recognizer was labeled with a unique dye and/or unique number of dyes. A scatter plot of bin ratio v. pulse duration is shown for the QP706 peptide fragment in FIG. 18A and for the QP1073 peptide fragment in FIG. 18B. In the plot of FIG. 18A, three clusters corresponding to FLE, LEQ, and RFL segments are visible. […] In the plot of FIG. 18B, two clusters corresponding to FLE and LEQ segments are visible, but there is no cluster corresponding to RFL.
In this example, sequencing reactions were conducted for 4 pairs of unmodified and citrullinated peptides: QP1028 & QP1029, QP1030 & QP1031, QP1032 & QP1033, and QP707 & QP789. […] For the QP1028 & QP1029 and QP1030 & QP1031 pairs, sequencing reactions were conducted using the PS610 (FYW) recognizer. For the QP1032 & QP1033 and QP707 & QP789 pairs, sequencing reactions were conducted using the PS1223 (LIV) recognizer.

[4] = system: PS610; assay: Dynamic single-molecule sequencing, recognition by PS610; type: binding, A. tumefaciens; conditions: peptide LAQFASIAAYASDDD, PS610 and PS961, PhTET2 and PhTET3
Procedure: The semiconductor chip was placed in the sequencing device and a chip check was performed to test electronic circuit function and to optimize laser coupling alignment. The chip was then removed from the device socket and the chip was washed twice with 50 μL of 70% isopropanol, followed by four washes with 30 μL of wash buffer (50 mM MOPS pH 8.0, 60 mM potassium acetate, 50 mM glucose, 20 mM magnesium acetate, and surfactant mix) through a flow cell attached to the chip. A second chip check was then performed. […] The chip was then washed six times with wash buffer, followed by addition of an imaging solution (wash buffer with 5 mM Trolox and an oxygen scavenging system). The laser was unblocked and the occupancy percentage (target 10-30%, Poisson distributed) was recorded by acquiring a photobleaching signal from a fluorophore attached to the peptide complex during 5 min of laser illumination. […] The laser was then blocked briefly and aminopeptidases were added to the sequencing reaction via the flow cell and mixed thoroughly (final concentration 2-8 μM PhTET2 and/or 20-80 μM PhTET3, as indicated according to the experiment). The laser was then unblocked, and data was recorded for 10 hours. For all runs, 30 μL of mineral oil was added to fluid reservoirs at each port of the flow cell to prevent evaporation during the run.
(§1) The measured signal on-chip comprises various noise components, the most dominant one being due to fluorescent emissions from diffusing recognizers in the reaction chamber. The pulse caller algorithm for a given reaction chamber starts by estimating the statistical properties of this background noise component. Once an estimate within certain error bounds has been established, the algorithm works in an online fashion observing new frames of data as they are generated. At each point in time, the algorithm maintains state indicating whether the signal is due to the background component only or a pulse from a recognizer-NAA interaction is being observed. The state transition from background to pulse is triggered using an edge detection test where the shift in signal is expected to be significant with respect to the background component's statistical distribution. The state transition from pulse to background is triggered when a small window of the most recent frames of the signal appears to conform to the background component's distribution again. The algorithm maintains an updated model of the background component as new background frames are observed. This provides robustness against drift in the signal intensity together with a feedback control loop that maintains a stable optical coupling of the laser into the chip based on any such detected drift. As detected pulses can be due to true recognizer-to-dipeptide interaction events as well as other occasional transient noise spikes, a downstream filter layer is employed to test the significance of pulse events based on their duration, intensity, and noise patterns within the context of the full timeline of the run and the entire dataset of reaction chambers.
Initial regions are determined by performing a sliding window calculation of pulse rate along the time dimension of a series of pulses. Regions with a mean pulse rate >1 pulse/min are then subdivided according to a greedy bisection approach. Here, the pulses on the left and right of each potential split are assessed for statistically significant deviation in any of four separate pulse properties—intensity, bin ratio, pulse duration, and interpulse duration—using a Mann-Whitney U Test. To define RSs, the split point with the lowest p-value for any of the four properties is used to sub-divide the region and the process continues until no regions remain with a candidate split point with p-value <10^−5 in any comparison. In this manner, transitions from one RS to the next in a region of continuous pulsing are determined a priori on the basis of changes in fluorescence properties of pulsing kinetics.

[5] = system: PS961; assay: Dynamic single-molecule sequencing, recognition by PS961; type: binding, Planctomycetes; conditions: peptide LAQFASIAAYASDDD, PS610 and PS961, PhTET2 and PhTET3
Sequence of PS961 (as listed by the source): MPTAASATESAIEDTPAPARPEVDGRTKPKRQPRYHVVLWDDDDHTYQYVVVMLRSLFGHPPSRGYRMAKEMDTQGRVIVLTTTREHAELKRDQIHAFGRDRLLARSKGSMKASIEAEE
Procedure: The semiconductor chip was placed in the sequencing device and a chip check was performed to test electronic circuit function and to optimize laser coupling alignment. The chip was then removed from the device socket and the chip was washed twice with 50 μL of 70% isopropanol, followed by four washes with 30 μL of wash buffer (50 mM MOPS pH 8.0, 60 mM potassium acetate, 50 mM glucose, 20 mM magnesium acetate, and surfactant mix) through a flow cell attached to the chip. A second chip check was then performed. The laser was then blocked via an integrated software-controlled shutter, peptide complex was added to a final concentration of 1-10 nM and mixed thoroughly, and the chip was incubated for 15 min. The chip was then washed six times with wash buffer, followed by addition of an imaging solution (wash buffer with 5 mM Trolox and an oxygen scavenging system). The laser was unblocked and the occupancy percentage (target 10-30%, Poisson distributed) was recorded by acquiring a photobleaching signal from a fluorophore attached to the peptide complex during 5 min of laser illumination. For NAA recognition-only assays, after peptide loading, labeled recognizer was added to a final concentration of 50 nM PS610, 100 nM PS691, or 250 nM PS961 (as indicated according to the experiment), and data was recorded for 10 hours. For dynamic sequencing assays, after peptide loading, a mixture of labeled recognizers was added to obtain final concentrations of 50 nM PS610, 100 nM PS691, and 250 nM PS961. Data was recorded for 15 min. The laser was then blocked briefly and aminopeptidases were added to the sequencing reaction via the flow cell and mixed thoroughly (final concentration 2-8 μM PhTET2 and/or 20-80 μM PhTET3, as indicated according to the experiment). The laser was then unblocked, and data was recorded for 10 hours. For all runs, 30 μL of mineral oil was added to fluid reservoirs at each port of the flow cell to prevent evaporation during the run.
as §1
Initial regions are determined by performing a sliding window calculation of pulse rate along the time dimension of a series of pulses. Regions with a mean pulse rate >1 pulse/min are then subdivided according to a greedy bisection approach.

[6] = RS duration across replicate traces

## DQQRLIFAG [synthetic peptide corresponding to a segment of human ubiquitin]
[1]
  Average NRS duration for the initial DQQ motif: 153 min
[1]; [6]
  Average cleavage time, N-terminal arginine: 31 min
  Average cleavage time, N-terminal isoleucine: 39 min
  Average cleavage time, N-terminal leucine: 54 min
  Average cleavage time, N-terminal phenylalanine: 86 min

## E22Q: β-amyloid variant, tripeptide FAQ (Amyloid-beta protein 42; UniProt P05067 691-693, looked up, fragment E22Q) [Peptide E22Q]
[2]
  Average Pulse Width, tripeptide FXX: 2.67 (FAQ) seconds

## ICitLAFAYPDDDK (I[Cit]LAFAYPDDDK-NH2; also: C-terminal azidolysine (general statement for all synthetic peptides)) [QP1033]
[3]
  Pulse Width: 0.84 s

## IRLAFAYPDDDK [QP1032]
[3]
  Pulse Width: 0.58 s

## LAQFASIAAYASDDD
[4]; listed as FAS
  Median PD: 1.43 s
[4]; listed as YAS
  Median PD: 0.66 s
[5]
  Median PD: 2.70 s

## LVFFAE [WT, β-amyloid wild type]
[2]
  Average Pulse Width, tripeptide FXX: 2.43 (FAE) seconds
  Average Pulse Width, tripeptide LVX: 3.26 (LVF) seconds
[2]; listed as wild type
  Average Pulse Width, tripeptide FXX: 2.43 s
  Average Pulse Width, tripeptide LVX: 3.26 s

## LVFFAG [Peptide E22G, β-amyloid variant]
[2]
  Average Pulse Width, tripeptide FXX: 2.99 (FAG) seconds

## LVFFAK [Peptide E22K, β-amyloid variant]
[2]
  Average Pulse Width, tripeptide FXX: 2.79 (FAK) seconds

## LVPFAE [Peptide F19P, β-amyloid variant]
[2]
  Average Pulse Width, tripeptide LVX: 1.86 seconds and 1.86 (LVP) seconds
